Test results from US4859611A (priority 1986, dated 1989).

Assays:
many animal species = settings: in vivo; cited from earlier work
[1] = tested on: IgM antibody affinity matrix; assay type: binding, mouse

In the case of `COc1cc2c(c3oc(=O)c4c(c13)CCC4=O)[C@@H]1C=CO[C@@H]1O2` [AFB1, aflatoxin B1], the “toxic, mutagenic and carcinogenic effect” value (many animal species) is listed as “toxic, mutagenic and carcinogenic” and the “capacity of affinity matrix to bind AFB1” value [1] is listed as 1.0 to 1.3 µg.
